Assay type in all cases: biochemical
One assay deals with T1, AKT (Homo sapiens, UniProt Q9Y243).
T1 construct: Kinases are expressed as either kinase domains or full length constructs; made in house
Put plainly: Kinase inhibition assay (33P transfer), AKT. Particulars: Table 2, kinase inhibition class; read-out: AKT3-1. Put shortly:
(§1)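 Each kinase, expressed as a GST- or polyHis-tagged domain or full-length protein, phosphorylated plate-attached poly(Glu,Tyr) 4:1 or poly(Arg,Ser) 3:1 using 33P-ATP. Bound radioactivity was measured by scintillation after a 0.5% phosphoric acid wash.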

In a further assay the target is T2, Fyn (Homo sapiens, UniProt P06241).
T2 construct: Kinases are expressed as either kinase domains or full length constructs; made in house
Kind of assay: Kinase inhibition assay (33P transfer), Fyn. To be noted: read-out: Fyn-1. A digest of the protocol:
(§2)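 IC50: inhibitor concentration lowering 33P incorporation into immobilised substrate by 50%. Label transferred from ATP to poly(Glu,Tyr) 4:1 or poly(Arg,Ser) 3:1 is measured after a 0.5% phosphoric acid wash by liquid scintillation.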

The target in the next assay is T3, Hck-1 (Homo sapiens, UniProt P08631).
T3 construct: Kinases are expressed as either kinase domains or full length constructs; made in house
Put plainly: Kinase inhibition assay (33P transfer), Hck. Particulars: Table 6, Hck-1 kinase inhibition class.

The next assay addresses T4, Flt-1 (Homo sapiens, UniProt P17948).
T4 construct: Kinases are expressed as either kinase domains or full length constructs; made in house
Kind of assay: Kinase inhibition assay (33P transfer), Flt-1. A digest of the protocol: as §2

A further assay has as its target T5, Zap-70 (Homo sapiens, UniProt P43403).
T5 construct: Kinases are expressed as either kinase domains or full length constructs; made in house
T5 sequence (P43403 1-619): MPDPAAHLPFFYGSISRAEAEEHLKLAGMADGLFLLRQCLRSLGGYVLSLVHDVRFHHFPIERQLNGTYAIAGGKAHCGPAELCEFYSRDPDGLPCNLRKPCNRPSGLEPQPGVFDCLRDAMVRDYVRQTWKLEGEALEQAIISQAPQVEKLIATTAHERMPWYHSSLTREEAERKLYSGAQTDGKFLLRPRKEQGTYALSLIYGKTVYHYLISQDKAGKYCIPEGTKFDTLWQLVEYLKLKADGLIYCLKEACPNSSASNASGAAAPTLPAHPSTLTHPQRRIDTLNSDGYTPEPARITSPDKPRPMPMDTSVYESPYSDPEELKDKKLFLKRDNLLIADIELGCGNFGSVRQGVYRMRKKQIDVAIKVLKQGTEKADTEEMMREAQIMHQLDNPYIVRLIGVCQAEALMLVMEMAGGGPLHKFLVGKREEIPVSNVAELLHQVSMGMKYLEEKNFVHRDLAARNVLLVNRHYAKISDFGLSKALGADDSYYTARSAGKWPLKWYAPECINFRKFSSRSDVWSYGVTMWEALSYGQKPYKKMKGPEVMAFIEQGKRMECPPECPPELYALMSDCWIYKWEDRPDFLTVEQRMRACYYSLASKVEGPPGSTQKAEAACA
Kind of assay: Kinase inhibition assay (33P transfer), Zap-70. To be noted: Table 3; read-out: Zap-1. A digest of the protocol: as §1

For a further assay, the target named is T6, EPHB4 (Homo sapiens, UniProt P54760).
T6 construct: Kinases are expressed as either kinase domains or full length constructs; made in house
T6 sequence (P54760 16-987): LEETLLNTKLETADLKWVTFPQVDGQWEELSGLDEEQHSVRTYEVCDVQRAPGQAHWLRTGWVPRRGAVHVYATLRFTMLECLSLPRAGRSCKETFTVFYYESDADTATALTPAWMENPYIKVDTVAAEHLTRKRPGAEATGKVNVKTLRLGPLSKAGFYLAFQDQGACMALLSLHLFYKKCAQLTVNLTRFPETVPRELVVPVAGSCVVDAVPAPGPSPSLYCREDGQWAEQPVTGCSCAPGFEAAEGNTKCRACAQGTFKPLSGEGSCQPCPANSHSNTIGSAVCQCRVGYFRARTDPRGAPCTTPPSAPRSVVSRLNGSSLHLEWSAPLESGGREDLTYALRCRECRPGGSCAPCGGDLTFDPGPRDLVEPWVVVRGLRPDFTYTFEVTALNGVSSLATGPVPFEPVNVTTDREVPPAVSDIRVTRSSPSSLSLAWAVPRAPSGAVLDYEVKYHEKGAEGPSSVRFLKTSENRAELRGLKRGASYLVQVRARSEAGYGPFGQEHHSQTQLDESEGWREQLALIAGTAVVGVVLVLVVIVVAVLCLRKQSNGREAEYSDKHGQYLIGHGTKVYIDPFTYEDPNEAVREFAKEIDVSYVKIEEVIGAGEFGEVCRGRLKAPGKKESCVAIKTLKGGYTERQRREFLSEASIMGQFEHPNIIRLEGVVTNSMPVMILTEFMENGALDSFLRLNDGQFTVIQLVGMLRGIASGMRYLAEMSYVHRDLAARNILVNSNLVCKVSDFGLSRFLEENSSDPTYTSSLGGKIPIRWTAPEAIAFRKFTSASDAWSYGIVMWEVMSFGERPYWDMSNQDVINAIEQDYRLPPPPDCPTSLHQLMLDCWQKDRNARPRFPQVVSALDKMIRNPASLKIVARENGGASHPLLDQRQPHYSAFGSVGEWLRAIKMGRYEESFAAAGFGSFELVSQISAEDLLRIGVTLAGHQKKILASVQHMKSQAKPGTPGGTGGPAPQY
Kind of assay: Kinase inhibition assay (33P transfer), EPHB4. Particulars: read-out: EPHB4-1.

Where only a bound is given, the exact number is not on record here.

T1 sequence (Q9Y243 whole entry, the tested form may be a part): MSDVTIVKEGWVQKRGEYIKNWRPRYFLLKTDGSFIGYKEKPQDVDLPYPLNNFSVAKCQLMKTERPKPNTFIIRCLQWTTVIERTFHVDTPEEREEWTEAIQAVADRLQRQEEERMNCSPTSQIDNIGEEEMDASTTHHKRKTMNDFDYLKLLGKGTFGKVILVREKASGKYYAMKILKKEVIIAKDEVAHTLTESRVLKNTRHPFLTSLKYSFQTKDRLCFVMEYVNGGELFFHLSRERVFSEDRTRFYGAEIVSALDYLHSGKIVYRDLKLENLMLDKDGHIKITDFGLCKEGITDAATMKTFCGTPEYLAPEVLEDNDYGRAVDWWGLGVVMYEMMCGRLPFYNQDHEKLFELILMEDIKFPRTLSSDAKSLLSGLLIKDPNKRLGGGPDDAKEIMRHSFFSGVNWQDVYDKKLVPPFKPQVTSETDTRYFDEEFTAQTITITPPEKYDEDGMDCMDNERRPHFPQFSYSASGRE
T4 sequence (P17948 27-1338, species assumed): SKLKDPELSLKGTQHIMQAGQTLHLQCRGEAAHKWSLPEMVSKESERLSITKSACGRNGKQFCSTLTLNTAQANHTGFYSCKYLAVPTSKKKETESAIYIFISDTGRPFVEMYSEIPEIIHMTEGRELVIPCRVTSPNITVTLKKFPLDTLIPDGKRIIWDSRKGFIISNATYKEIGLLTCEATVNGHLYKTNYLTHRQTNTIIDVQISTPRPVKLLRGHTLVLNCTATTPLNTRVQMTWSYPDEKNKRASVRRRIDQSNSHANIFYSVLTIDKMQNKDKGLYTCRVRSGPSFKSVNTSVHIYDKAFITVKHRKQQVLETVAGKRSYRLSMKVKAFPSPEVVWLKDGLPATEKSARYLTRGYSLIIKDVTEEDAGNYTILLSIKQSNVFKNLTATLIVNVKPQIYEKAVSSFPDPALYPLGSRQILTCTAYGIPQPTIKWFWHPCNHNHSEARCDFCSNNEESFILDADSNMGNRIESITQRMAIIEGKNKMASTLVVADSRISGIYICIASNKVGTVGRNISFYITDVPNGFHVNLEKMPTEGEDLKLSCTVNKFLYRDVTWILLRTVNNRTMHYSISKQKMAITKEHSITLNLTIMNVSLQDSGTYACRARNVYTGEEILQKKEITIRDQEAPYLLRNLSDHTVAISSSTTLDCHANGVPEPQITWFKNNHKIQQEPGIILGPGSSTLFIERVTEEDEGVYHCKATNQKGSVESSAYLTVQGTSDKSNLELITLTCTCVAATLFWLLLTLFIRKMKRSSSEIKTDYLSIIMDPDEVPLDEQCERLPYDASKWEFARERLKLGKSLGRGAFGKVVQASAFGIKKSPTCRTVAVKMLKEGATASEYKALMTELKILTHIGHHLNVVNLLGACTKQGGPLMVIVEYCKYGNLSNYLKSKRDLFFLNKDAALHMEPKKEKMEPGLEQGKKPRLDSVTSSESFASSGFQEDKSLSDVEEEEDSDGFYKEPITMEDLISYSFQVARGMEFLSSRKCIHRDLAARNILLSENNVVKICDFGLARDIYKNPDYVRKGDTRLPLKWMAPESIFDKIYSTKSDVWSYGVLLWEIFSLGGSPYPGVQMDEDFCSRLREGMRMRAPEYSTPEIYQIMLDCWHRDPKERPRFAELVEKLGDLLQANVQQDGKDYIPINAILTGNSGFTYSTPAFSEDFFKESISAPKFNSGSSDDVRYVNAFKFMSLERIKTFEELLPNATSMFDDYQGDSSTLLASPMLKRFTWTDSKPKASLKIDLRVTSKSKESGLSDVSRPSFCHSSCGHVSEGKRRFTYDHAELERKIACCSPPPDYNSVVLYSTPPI
T3 sequence (P08631 whole entry, the tested form may be a part): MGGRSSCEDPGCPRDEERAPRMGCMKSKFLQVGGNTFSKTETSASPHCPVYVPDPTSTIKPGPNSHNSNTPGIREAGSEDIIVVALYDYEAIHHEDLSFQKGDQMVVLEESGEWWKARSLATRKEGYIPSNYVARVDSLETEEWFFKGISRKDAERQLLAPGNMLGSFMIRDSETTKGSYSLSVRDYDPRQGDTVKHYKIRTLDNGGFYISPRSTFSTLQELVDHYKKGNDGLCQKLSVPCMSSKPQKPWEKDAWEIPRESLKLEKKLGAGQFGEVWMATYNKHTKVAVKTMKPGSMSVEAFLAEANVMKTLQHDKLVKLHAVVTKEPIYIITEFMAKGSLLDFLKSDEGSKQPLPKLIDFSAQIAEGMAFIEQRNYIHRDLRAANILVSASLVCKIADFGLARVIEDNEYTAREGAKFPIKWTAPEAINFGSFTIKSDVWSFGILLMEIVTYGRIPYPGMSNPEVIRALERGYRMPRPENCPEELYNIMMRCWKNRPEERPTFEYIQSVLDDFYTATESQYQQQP
T2 sequence (P06241 whole entry, species assumed, the tested form may be a part): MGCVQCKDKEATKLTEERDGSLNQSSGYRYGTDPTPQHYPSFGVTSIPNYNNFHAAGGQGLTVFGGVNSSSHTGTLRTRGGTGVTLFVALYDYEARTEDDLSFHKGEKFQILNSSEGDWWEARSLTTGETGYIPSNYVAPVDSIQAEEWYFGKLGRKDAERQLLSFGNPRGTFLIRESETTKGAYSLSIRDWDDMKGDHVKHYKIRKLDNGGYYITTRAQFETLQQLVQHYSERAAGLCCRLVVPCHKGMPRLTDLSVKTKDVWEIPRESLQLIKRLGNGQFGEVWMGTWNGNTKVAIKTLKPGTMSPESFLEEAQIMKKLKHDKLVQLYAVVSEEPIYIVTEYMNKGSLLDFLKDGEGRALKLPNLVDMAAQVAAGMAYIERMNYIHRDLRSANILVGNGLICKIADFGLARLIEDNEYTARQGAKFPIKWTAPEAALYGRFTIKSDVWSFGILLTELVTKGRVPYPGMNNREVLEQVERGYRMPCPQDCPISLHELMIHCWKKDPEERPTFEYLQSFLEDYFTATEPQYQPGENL

`COc1cc(Nc2ncnc(Nc3cc(C(C)(C)C)[nH]n3)n2)cc(OC)c1OC` [Compound 313]: the IC50 at AKT is more than 11.3 µM; at Fyn, 1 to 6.01 µM; against Hck-1, 6.01 to 8.76 µM; against Flt-1, 6.01 to 8.76 µM; on Zap-70 it was more than 11.3 µM; on EPHB4, 1 to 6.01 µM.

In the case of `COc1ccc(Nc2ncnc(N(C/C=C/c3ccccc3)c3ccc(Cl)cc3)n2)cc1OC` [Compound 974], the IC50 at AKT, on Fyn, on Hck-1, on Flt-1, on Zap-70 and on EPHB4 was more than 9.49 µM each time.

For the compound `COc1cc(Nc2ncnc(-n3ncc4ccccc43)n2)cc(OC)c1OC` [Compound 240], the IC50 at AKT was more than 11.9 µM; at Fyn, 1.06 to 6.34 µM; against Hck-1 it was more than 11.9 µM; against Flt-1 it was 1.06 to 6.34 µM; on Zap-70, more than 11.9 µM; at EPHB4 it was more than 11.9 µM.

With `COc1cc(Nc2ncnc(N(C/C=C/c3ccccc3)c3ccc(Cl)cc3)n2)cc(OC)c1OC` [Compound 56], the IC50 is more than 8.93 µM on AKT; more than 8.93 µM at Fyn; more than 8.93 µM against Hck-1; 4.76 to 6.94 µM at Flt-1; more than 8.93 µM on Zap-70; more than 8.93 µM on EPHB4.

As to `COC(=O)c1sccc1Nc1ncnc(Nc2cc(OC)c(OC)c(OC)c2)n1` [Compound 315], the IC50 at AKT is more than 10.8 µM; on Fyn, more than 10.8 µM; on Hck-1, more than 10.8 µM; against Flt-1, more than 10.8 µM; on Zap-70, 8.38 to 10.8 µM; on EPHB4 it was more than 10.8 µM.

With `COc1cc(Nc2ncnc(N3CCc4ccccc43)n2)cc(OC)c1OC` [Compound 184], the IC50 was more than 11.9 µM at AKT; 1.05 to 6.33 µM at Fyn; more than 11.9 µM against Hck-1; less than 1.05 µM at Flt-1; more than 11.9 µM at Zap-70; 6.33 to 9.22 µM at EPHB4.

For `COc1cc(Nc2ncnc(Nc3ccc(Br)cc3F)n2)cc(OC)c1OC` [Compound 41], the IC50 on AKT is more than 9.99 µM; at Fyn it was 0.888 to 5.33 µM; against Hck-1 it was more than 9.99 µM; on Flt-1 it was 0.888 to 5.33 µM; on Zap-70, more than 9.99 µM; at EPHB4, 0.888 to 5.33 µM.

Turning to `COc1cc(Nc2ncnc(Nc3nc4ccccc4n3C)n2)cc(OC)c1OC` [Compound 938], the IC50 was more than 11 µM on AKT; more than 11 µM at Fyn; more than 11 µM on Hck-1; 0.982 to 5.89 µM on Flt-1; more than 11 µM at Zap-70; more than 11 µM on EPHB4.

As for `COc1cc(Nc2ncnc(Nc3ccc(C)c(NS(C)(=O)=O)c3)n2)cc(OC)c1OC` [Compound 305], the IC50 is more than 9.77 µM at AKT; less than 0.869 µM at Fyn; 5.21 to 7.6 µM against Hck-1; 0.869 to 5.21 µM at Flt-1; more than 9.77 µM on Zap-70; 0.869 to 5.21 µM on EPHB4.

In the case of `COc1cc(Nc2ncnc(N3CCCC4CCCCC43)n2)cc(OC)c1OC` (stereo not drawn) [Compound 314], the IC50 at AKT is more than 11.3 µM; on Fyn it was 1 to 6.01 µM; at Hck-1, 6.01 to 8.76 µM; on Flt-1, 1 to 6.01 µM; at Zap-70, more than 11.3 µM; on EPHB4 it was more than 11.3 µM.

As to `COc1cc(Nc2ncnc(N3c4ccc(F)cc4CCC3C)n2)cc(OC)c1OC` (stereo not drawn) [Compound 298], the IC50 on AKT is more than 10.6 µM; at Fyn, 0.94 to 5.64 µM; against Hck-1, 0.94 to 5.64 µM; against Flt-1, less than 0.94 µM; on Zap-70, 8.23 to 10.6 µM; at EPHB4, 0.94 to 5.64 µM.

`COCCOc1ccc(Nc2ncnc(-n3c(N)nc4ccccc43)n2)cc1OC` [Compound 287]: the IC50 on AKT, on Fyn, at Hck-1, against Flt-1, at Zap-70 and at EPHB4 was more than 11 µM in each case.

`COc1ccc2c(c1)c(CCNC(C)=O)cn2-c1ncnc(Nc2cc(OC)c(OC)c(OC)c2)n1` [Compound 339]: the IC50 at AKT, at Fyn, on Hck-1, at Flt-1, at Zap-70 and at EPHB4 was more than 9.14 µM throughout.

As to `COCCOc1ccc(Nc2ncnc(Nc3cc(-c4ccco4)n[nH]3)n2)cc1OCCOC` [Compound 328], the IC50 at AKT is 5.13 to 7.49 µM; at Fyn, 5.13 to 7.49 µM; on Hck-1 it was 5.13 to 7.49 µM; against Flt-1, less than 0.856 µM; at Zap-70, more than 9.63 µM; at EPHB4, more than 9.63 µM.

Turning to `COc1ccc2c(ccn2-c2ncnc(Nc3cc(OC)c(OC)c(OC)c3)n2)c1` [Compound 196], the IC50 at AKT is more than 11 µM; on Fyn, more than 11 µM; at Hck-1, more than 11 µM; against Flt-1 it was 0.982 to 5.89 µM; on Zap-70 it was more than 11 µM; at EPHB4, more than 11 µM.

With `C#Cc1cccc(Nc2ncnc(Nc3ccc(OC)c(OC)c3)n2)c1` [Compound 116], the IC50 on AKT, on Fyn, at Hck-1, at Flt-1, at Zap-70 and at EPHB4 was more than 13 µM in each case.

Regarding `COc1cc(Nc2ncnc(Nc3ccc4c(c3)OCO4)n2)cc(OC)c1OC` [Compound 252], the IC50 was more than 11.3 µM at AKT; 1.01 to 6.04 µM on Fyn; more than 11.3 µM against Hck-1; less than 1.01 µM on Flt-1; more than 11.3 µM at Zap-70; 1.01 to 6.04 µM on EPHB4.

As to `COc1ccc(Nc2ncnc(Nc3cc(-c4ccco4)n[nH]3)n2)cc1OC` [Compound 337], the IC50 at AKT was more than 11.9 µM; at Fyn it was 1.05 to 6.33 µM; against Hck-1, more than 11.9 µM; against Flt-1, less than 1.05 µM; at Zap-70, more than 11.9 µM; on EPHB4, 1.05 to 6.33 µM.

As for `COc1cc(Nc2ncnc(-n3c(Nc4ccccc4)nc4ccccc43)n2)cc(OC)c1OC` [Compound 336], the IC50 on AKT was more than 9.58 µM; at Fyn, more than 9.58 µM; against Hck-1, more than 9.58 µM; against Flt-1, less than 0.852 µM; at Zap-70, more than 9.58 µM; at EPHB4, more than 9.58 µM.

On to `C=CCN(c1ccc(Cl)cc1)c1ncnc(Nc2cc(OC)c(OC)c(OC)c2)n1` [Compound 972], for which the IC50 at AKT is more than 10.5 µM; at Fyn it was 0.935 to 5.61 µM; against Hck-1 it was more than 10.5 µM; against Flt-1, 0.935 to 5.61 µM; on Zap-70 it was more than 10.5 µM; on EPHB4, 0.935 to 5.61 µM.

As for `COc1cc(Nc2ncnc(N(CC(=O)O)c3ccc4c(c3)OCO4)n2)cc(OC)c1OC` [Compound 319], the IC50 on AKT, on Fyn, against Hck-1, against Flt-1, on Zap-70 and at EPHB4 was more than 9.88 µM each time.
